Consider one molecule from BindingDB's records for patent US12440494 (Albert Einstein College of Medicine, 2025).

Usually IC50 stands for the concentration at which inhibition is half-maximal.

The target of the assay is Serine/threonine-protein kinase B-raf [V600E] (Homo sapiens, UniProt P15056, V600E). The assay can be described thus: Kinase Activity Assay.
Serine/threonine-protein kinase B-raf [V600E], sequence (P15056 2-766 V600E limits assumed): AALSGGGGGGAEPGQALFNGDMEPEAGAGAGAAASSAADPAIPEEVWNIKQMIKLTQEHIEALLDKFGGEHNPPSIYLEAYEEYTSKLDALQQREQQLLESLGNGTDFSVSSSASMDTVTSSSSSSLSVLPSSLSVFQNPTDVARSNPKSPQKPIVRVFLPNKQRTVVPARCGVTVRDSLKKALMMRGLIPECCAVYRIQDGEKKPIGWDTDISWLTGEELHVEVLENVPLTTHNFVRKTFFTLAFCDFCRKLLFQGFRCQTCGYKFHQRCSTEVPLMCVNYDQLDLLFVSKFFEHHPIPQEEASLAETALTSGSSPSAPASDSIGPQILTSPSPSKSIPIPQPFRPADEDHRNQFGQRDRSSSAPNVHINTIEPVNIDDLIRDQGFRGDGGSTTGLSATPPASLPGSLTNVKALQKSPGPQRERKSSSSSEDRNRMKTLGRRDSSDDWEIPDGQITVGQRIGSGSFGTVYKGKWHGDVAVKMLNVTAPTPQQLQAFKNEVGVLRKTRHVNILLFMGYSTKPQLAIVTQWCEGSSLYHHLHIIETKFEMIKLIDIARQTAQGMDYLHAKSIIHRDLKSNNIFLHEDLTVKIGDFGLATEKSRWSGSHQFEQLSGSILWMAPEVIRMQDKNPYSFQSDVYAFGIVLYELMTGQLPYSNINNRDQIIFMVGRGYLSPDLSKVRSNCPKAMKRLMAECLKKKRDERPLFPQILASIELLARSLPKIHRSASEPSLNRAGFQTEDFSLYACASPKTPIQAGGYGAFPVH

Experimental: BRAF kinase assays were performed using the Z′-LYTE™ enzymatic assay (Invitrogen, USA). […] Titrations were performed using a 1:3 dilution. Assays were performed using Select Screen (Invitrogen).

As to `COC(=O)N1CCN(CCNCc2ccc(NC(=O)c3ccc(C)c(C#Cc4cnc5cccnn45)c3)cc2C(F)(F)F)CC1` [US12440494, Compound 2], the IC50 is 17.8 nM.
